Patent publication US20240041042A1, “1-(PYRIDYL)-5-AZINYLPYRAZOLE DERIVATIVES, AND THEIR USE FOR CONTROL OF UNDESIRED PLANT GROWTH” (Bayer Aktiengesellschaft, priority 2020, published 2024)
Like-named read-outs stand apart in the source and are kept apart here. Values belong to the compound of their own block, whether it stands above or below them.

Tests used:
Assay type in all cases: in vivo
[1] = system: Abutilon theophrasti (ABUTH); assay: Post-emergence herbicidal action against ABUTH; conditions: visual rating about 3 weeks after treatment vs untreated controls (100% = plants have died, 0% = like control plants)
Procedure, shortened: (§1)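 Doses of 320 g/ha or lower, suffixes a, b and c marking different dosages, were applied post-emergence at the one-leaf stage in 600 l/ha water with 0.5% additive. Damage was assessed visually after about 3 weeks in the greenhouse.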

[2] = system: Triticum aestivum (TRZAS); conditions: pre-emergence, crop plant compatibility, in comparison to untreated controls
Procedure, shortened: (§2)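 Scoring: visual, % of untreated control, about 3 weeks after a pre-emergence application to the soil surface. Application used WP or EC formulations diluted in water with 0.5% additive at 600 l/ha; dosage levels are marked by suffixes a, b and c.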

[3] = system: Zea mays (ZEAMX); conditions: pre-emergence, crop plant compatibility, in comparison to untreated controls
Procedure, shortened: as §2

[4] = system: Oryza sativa (ORYSA); conditions: pre-emergence, crop plant compatibility, in comparison to untreated controls
Procedure, shortened: as §2

[5] = system: Brassica napus (BRSNW); conditions: crop plant compatibility, in comparison to untreated controls
Procedure, shortened: as §2

[6] = system: Triticum aestivum (TRZAS); conditions: crop plant compatibility, effect vs untreated controls
Procedure, shortened: (§3)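 Visual rating (% effect vs. untreated plants; 100% = plant death) made about 3 weeks after treatment. Plants had been sprayed at one-leaf stage, 2–3 weeks post-sowing, with aqueous WP/EC preparations containing 0.5% additive, 600 l/ha water volume; a, b, c mark dose levels.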

[7] = system: Zea mays (ZEAMX); conditions: crop plant compatibility, effect vs untreated controls
Procedure, shortened: as §3

[8] = system: Oryza sativa (ORYSA); conditions: crop plant compatibility, effect in comparison to untreated controls
Procedure, shortened: as §3

[9] = system: Alopecurus myosuroides (ALOMY); assay: Pre-emergence herbicidal action against ALOMY; conditions: 320 g/ha; scored visually after about 3 weeks; 100% = plants have died
Procedure, shortened: (§4)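 Read-out is visual percent damage relative to untreated pots, with 100% meaning dead plants and 0% meaning no difference, assessed roughly three weeks after treatment. Compounds were applied pre-emergence to the covering soil at up to 320 g/ha.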

[10] = system: Viola tricolor (VIOTR); assay: Post-emergence herbicidal action against VIOTR
Procedure, shortened: as §1

[11] = system: Amaranthus retroflexus (AMARE); assay: Post-emergence herbicidal action against AMARE
Procedure, shortened: as §1

[12] = system: Avena fatua (AVEFA); assay: Post-emergence herbicidal action against AVEFA; conditions: visual rating about 3 weeks after treatment
Procedure, shortened: as §1

[13] = system: Echinochloa crus-galli (ECHCG); assay: Post-emergence herbicidal action against ECHCG
Procedure, shortened: as §1

[14] = system: Verconica persica (VERPE); assay: Post-emergence herbicidal action against VERPE
Procedure, shortened: as §1

[15] = system: Pharbitis purpurea (PHBPU); assay: Post-emergence herbicidal action against PHBPU; conditions: dosage 320 g/ha
Procedure, shortened: as §1

[16] = system: Matricaria inodora (MATIN); assay: Pre-emergence herbicidal action against MATIN
Procedure, shortened: as §4

[17] = system: Viola tricolor (VIOTR); assay: Pre-emergence herbicidal action against VIOTR
Procedure, shortened: as §4

[18] = system: Avena fatua (AVEFA); assay: Pre-emergence herbicidal action against AVEFA; conditions: 320 g/ha, visual scoring after about 3 weeks vs untreated controls
Procedure, shortened: as §4

[19] = system: Alopecurus myosuroides (ALOMY); assay: Post-emergence herbicidal action against ALOMY; conditions: visual rating about 3 weeks after treatment vs untreated controls (100% = plants have died, 0% = like control plants)
Procedure, shortened: as §1

[20] = system: Amaranthus retroflexus (AMARE); assay: Pre-emergence herbicidal action against AMARE; conditions: visual scoring after about 3 weeks vs untreated controls
Procedure, shortened: as §4

[21] = system: Pharbitis purpurea (PHBPU); assay: Pre-emergence herbicidal action against PHBPU; conditions: dosage 320 g/ha
Procedure, shortened: as §4

[22] = system: Polygonum convolvulus (POLCO); assay: Post-emergence herbicidal action against POLCO
Procedure, shortened: as §1

[23] = system: Abutilon theophrasti (ABUTH); assay: Pre-emergence herbicidal action against ABUTH; conditions: 100% = plants have died
Procedure, shortened: as §4

[24] = system: Polygonum convolvulus (POLCO); assay: Pre-emergence herbicidal action against POLCO; conditions: dosage 320 g/ha
Procedure, shortened: as §4

[25] = system: Lolium rigidum (LOLRI); assay: Pre-emergence herbicidal action against LOLRI; conditions: dosage 320 g/ha
Procedure, shortened: as §4

[26] = system: Lolium rigidum (LOLRI); assay: Post-emergence herbicidal action against LOLRI; conditions: dosage 320 g/ha
Procedure, shortened: as §1

[27] = system: Setaria viridis (SETVI); assay: Pre-emergence herbicidal action against SETVI; conditions: dosage 320 g/ha
Procedure, shortened: as §4

[28] = system: Setaria viridis (SETVI); assay: Post-emergence herbicidal action against SETVI; conditions: dosage 320 g/ha
Procedure, shortened: as §1

[29] = 320 g/ha, visual rating about 3 weeks after treatment

- Pre-emergence action against TRZAS in % ([2]; 80 g/ha): 0%
- Pre-emergence action against TRZAS in % ([2]; 320 g/ha): 0%
- Pre-emergence action against ZEAMX in % ([3]; 80 g/ha): 0%
- Pre-emergence action against ZEAMX in % ([3]; 320 g/ha): 10%
- Pre-emergence action against ORYSA in % ([4]; 80 g/ha): 0%
- Pre-emergence action against ORYSA in % ([4]; 320 g/ha): 20%
- Pre-emergence action against BRSNW in % ([5]; 80 g/ha): 0%
- Post-emergence action against TRZAS in % ([6]; 80 g/ha): 0%
- Post-emergence action against ZEAMX in % ([7]; 80 g/ha): 0%
- Post-emergence action against ZEAMX in % ([7]; 320 g/ha): 0%
- Post-emergence action against ORYSA in % ([8]; 80 g/ha): 0%
- Post-emergence action against ORYSA in % ([8]; 320 g/ha): 0%
Compound: CC(=O)CNC(=O)COc1nn(-c2ccnc(F)c2)c(-c2ccc(F)nc2)c1Br [III-07]
- Post-emergence action against ABUTH in % ([1]; 320 g/ha): 80%
- Pre-emergence action against ALOMY [9]: 80%

- Pre-emergence action against TRZAS in % ([2]; 80 g/ha): 0%
- Pre-emergence action against ZEAMX in % ([3]; 80 g/ha): 10%
- Pre-emergence action against ZEAMX in % ([3]; 320 g/ha): 20%
- Pre-emergence action against ORYSA in % ([4]; 80 g/ha): 0%
- Pre-emergence action against ORYSA in % ([4]; 320 g/ha): 0%
- Pre-emergence action against BRSNW in % ([5]; 80 g/ha): 0%
- Post-emergence action against TRZAS in % ([6]; 80 g/ha): 0%
- Post-emergence action against ZEAMX in % ([7]; 80 g/ha): 0%
- Post-emergence action against ZEAMX in % ([7]; 320 g/ha): 0%
- Post-emergence action against ORYSA in % ([8]; 80 g/ha): 0%
- Post-emergence action against ORYSA in % ([8]; 320 g/ha): 0%
Compound: CCOC(=O)COc1nn(-c2ccnc(F)c2)c(-c2ccc(F)nc2)c1Br [III-01]
- Post-emergence action against VIOTR in % ([10]; 320 g/ha): 80%
- Post-emergence action against AMARE in % [11, 29]: 80%
- Post-emergence action against AVEFA in % ([12]; 320 g/ha): 80%
- Post-emergence action against ECHCG in % ([13]; dosage 320 g/ha): 80%
- Post-emergence action against VERPE in % ([14]; 320 g/ha, VERPE): 80%

Second part, the compound before the results:

Compound: O=C(O)C1CCN(C(=O)COc2nn(-c3ccccn3)c(-c3cncc(F)c3)c2Br)C1 (racemic) [Example I-63]
- Pre-emergence action against TRZAS in % ([2]; 80 g/ha): 0%
- Pre-emergence action against TRZAS in % ([2]; 320 g/ha): 0%
- Pre-emergence action against ZEAMX in % ([3]; 80 g/ha): 10%
- Pre-emergence action against ZEAMX in % ([3]; 320 g/ha): 10%
- Pre-emergence action against ORYSA in % ([4]; 80 g/ha): 0%
- Pre-emergence action against ORYSA in % ([4]; 320 g/ha): 0%
- Pre-emergence action against BRSNW in % ([5]; 80 g/ha): 0%
- Pre-emergence action against BRSNW in % ([5]; 320 g/ha): 20%
- Post-emergence action against TRZAS in % ([6]; 80 g/ha): 0%
- Post-emergence action against TRZAS in % ([6]; 320 g/ha): 0%
- Post-emergence action against ZEAMX in % ([7]; 80 g/ha): 0%
- Post-emergence action against ZEAMX in % ([7]; 320 g/ha): 10%
- Post-emergence action against ORYSA in % ([8]; 80 g/ha): 0%
- Post-emergence action against ORYSA in % ([8]; 320 g/ha): 10%

Compound: CCOC(=O)COc1nn(-c2ncccc2C(F)(F)F)c(-c2ccc(F)nc2)c1Cl [Example I-325]
- Post-emergence action against PHBPU in % [15]: 80%
- Pre-emergence action against MATIN in % ([16]; dosage 80 g/ha): 100%
- Pre-emergence action against MATIN in % ([16]; dosage 320 g/ha): 100%
- Pre-emergence action against VIOTR in % ([17]; 320 g/ha, Viola tricolor): 100%
- Pre-emergence action against VIOTR in % ([17]; dosage 80 g/ha): 90%
- Pre-emergence action against AVEFA in % [18]: 100%
- Post-emergence action against VIOTR in % ([10]; 80 g/ha): 90%
- Post-emergence action against VIOTR in % ([10]; 320 g/ha): 90%
- Post-emergence action against ALOMY in % ([19]; 80 g/ha): 80%
- Post-emergence action against ALOMY in % ([19]; 320 g/ha): 100%
- Pre-emergence action against AMARE in % ([20]; 80 g/ha): 100%
- Pre-emergence action against AMARE in % ([20]; 320 g/ha): 100%
- Pre-emergence action against PHBPU in % [21]: 80%
- Post-emergence action against ABUTH in % ([1]; 80 g/ha): 80%
- Post-emergence action against ABUTH in % ([1]; 320 g/ha): 90%
- Post-emergence action against POLCO in % ([22]; dosage 320 g/ha): 80%
- Post-emergence action against AMARE in % [11, 29]: 80%
- Post-emergence action against ECHCG in % ([13]; dosage 80 g/ha): 90%
- Post-emergence action against ECHCG in % ([13]; dosage 320 g/ha): 90%
- Pre-emergence action against ZEAMX in % ([3]; 80 g/ha): 0%
- Pre-emergence action against ZEAMX in % ([3]; 320 g/ha): 0%
- Pre-emergence action against BRSNW in % ([5]; 80 g/ha): 20%
- Pre-emergence action against ABUTH ([23]; 80 g/ha, scored visually after about 3 weeks vs untreated controls, 0% = like control plants): 90%
- Pre-emergence action against ABUTH ([23]; Dosage column 320 g/ha (title prints 3200 g/ha), scored visually after about 3 weeks): 90%
- Pre-emergence action against POLCO in % [24]: 90%
- Post-emergence action against ZEAMX in % ([7]; 80 g/ha): 0%
- Post-emergence action against ORYSA in % ([8]; 80 g/ha): 20%
- Pre-emergence action against LOLRI in % [25]: 100%
- Post-emergence action against VERPE in % ([14]; 320 g/ha, VERPE): 90%
- Post-emergence action against VERPE in % ([14]; dosage 80 g/ha): 80%
- Post-emergence action against LOLRI in % [26]: 90%
- Pre-emergence action against ALOMY [9]: 100%

Compound: O=C(O)COc1nn(-c2ncccc2Cl)c(-c2ccc(F)nc2)c1Br [Example I-26]
- Pre-emergence action against VIOTR in % ([17]; 320 g/ha, Viola tricolor): 100%
- Pre-emergence action against VIOTR in % ([17]; dosage 80 g/ha): 100%
- Pre-emergence action against AVEFA in % [18]: 90%
- Post-emergence action against VIOTR in % ([10]; 320 g/ha): 80%
- Post-emergence action against ALOMY in % ([19]; 320 g/ha): 90%
- Pre-emergence action against SETVI in % [27]: 100%
- Pre-emergence action against AMARE in % ([20]; 320 g/ha): 100%
- Post-emergence action against ABUTH in % ([1]; 320 g/ha): 90%
- Post-emergence action against POLCO in % ([22]; dosage 80 g/ha): 80%
- Post-emergence action against POLCO in % ([22]; dosage 320 g/ha): 80%
- Post-emergence action against AMARE in % ([11]; 80 g/ha, visual rating about 3 weeks after treatment vs untreated controls (100% = plants have died, 0% = like control plants)): 80%
- Post-emergence action against AMARE in % [11, 29]: 80%
- Post-emergence action against AVEFA in % ([12]; 80 g/ha): 100%
- Post-emergence action against AVEFA in % ([12]; 320 g/ha): 100%
- Post-emergence action against ECHCG in % ([13]; dosage 80 g/ha): 80%
- Post-emergence action against ECHCG in % ([13]; dosage 320 g/ha): 80%
- Post-emergence action against SETVI in % [28]: 90%
- Pre-emergence action against TRZAS in % ([2]; 80 g/ha): 0%
- Pre-emergence action against ZEAMX in % ([3]; 80 g/ha): 0%
- Pre-emergence action against ORYSA in % ([4]; 80 g/ha): 0%
- Pre-emergence action against BRSNW in % ([5]; 80 g/ha): 20%
- Pre-emergence action against POLCO in % [24]: 90%
- Post-emergence action against ZEAMX in % ([7]; 80 g/ha): 0%
- Post-emergence action against VERPE in % ([14]; 320 g/ha, VERPE): 80%
- Post-emergence action against LOLRI in % [26]: 80%
- Pre-emergence action against ALOMY [9]: 100%
